Measurements reported in article PMC8395040 (International Journal of Molecular Sciences, 2021).

Tests used:
[1] = tested on: HEK293; test: MTT cytotoxicity assay, HEK293 control cells; assay type: cell-based, human; details: for IC50: Homo sapiens, HEK293, MTT, 72 h, non-cancer cell line;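 for all read-outs here: Read-out is formazan absorbance at 570 nm from MTT reduction in 96-well plates, with three independent biological replicates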
[2] = MTT cytotoxicity assay, HEK293 control cells; assay type: cell-based, human; details: human, HEK293 cells; 50 µM, 72 h, MTT;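 note: Read-out is formazan absorbance at 570 nm from MTT reduction in 96-well plates, with three independent biological replicates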
[3] = tested on: HT29 cells; test: Annexin V-FITC/PI assay, HT29; assay type: cell-based, human; details: for early apoptosis (II): 19 µM, 3 or 12 h, untreated control 2.7%
Experimental: HT29 cells were seeded in a 12-well plate (5 × 10^5 cells per well) and incubated overnight in DMEM F12. […] The cells were collected and then processed for apoptosis analysis using the Annexin-V/PI Alexa Fluor 488 Apoptosis Kit (Invitrogen, Waltham, MA, USA) according to the manufacturer’s instructions. Finally, cells were analysed by flow cytometry (BD; FACS Canto II, Mountain View, CA, USA) and data were processed using the FCS Express v6 software. Three independent replicates were performed.

[4] = tested on: Gli1 mRNA in Smo−/− MEFs; test: Gli1 mRNA (qRT-PCR) in Smo−/− MEFs; assay type: cell-based, mouse; details: 24 h and/or 48 h
Experimental: HEK293T and Smo^−/−, Ptch^−/− MEFs cells were cultured in DMEM plus 10% FBS, 1% L-glutamine and antibiotics. Transient transfections were performed using DreamFectTM Gold transfection reagent (Oz Biosciences SAS, Marseille, France) following the manufacturer’s instructions and for varying periods of time depending on the experiment (24–72 h). […] Vehicle (DMSO) was used as control.
Total RNA was isolated with Trizol (Invitrogen/Life Technologies, Carlsbad, CA, USA) from Smo^−/− MEFs, Ptch^−/− MEFs or HT29 cells treated for 24 h and/or 48 h with 4s at different concentrations and reverse transcribed with the SensiFAST cDNA Synthesis Kit (Bioline Reagents Limited, London, UK). Quantitative real-time PCR (Q-PCR) analysis of Gli1 and housekeeping (HPRT, TBP, HMBS) mRNA levels was performed on each cDNA sample using the VIIA7 Real Time PCR System employing Assay-on-Demand Reagents (Life Technologies) as previously described. […] Each amplification reaction was performed in triplicate, the average of the three threshold cycles was used to calculate the amount of transcript in the sample (using SDS version 2.3 Software). mRNA quantification was expressed in arbitrary units as the ratio of the sample quantity to the quantity of the calibrator (ΔCt method). […]

[5] = tested on: HT29; test: CFSE proliferation assay, HT29; assay type: cell-based, human; details: 19 µM, 48 h
Experimental: HT29 and HEK293 cells were resuspended at 1 × 10^6/mL in DMEM F12 without FBS. A 5 mM CFSE stock solution carboxyfluorescein diacetate succinimidyl ester (Cell Proliferation Kit, Life Technologies, Carlsbad, CA, USA) in DMSO was added to a final concentration of 5 µM and incubated at 37 °C for 15 min protected from light. At the end of the incubation period, the cells were immediately washed twice in cold PBS 1X/no-FBS. Cells were washed three times in PBS 1×/10%-FBS and resuspended in the same medium and plated in 12-well plates at a density of 1 × 10^5 cells/200 µL medium and grown overnight at 37 °C in a 5% CO2 humidified atmosphere. […] The cells were collected and then analysed by flow cytometry (BD; FACScanto II, Mountain View, CA, USA) and data were processed using FCS Express v6 software. Two independent biological replicates were performed.

[6] = tested on: HCT116; test: MTT cytotoxicity assay, HCT116; assay type: cell-based; details: Homo sapiens, HCT-116, 72 h, MTT; for cytotoxicity at 50 µM: read-out: % Cytotoxicity (50 µM) HCT116; for IC50: 0.05–50 µM
Experimental: (§1) Cytotoxicity assays were performed by using the MTT reduction method as described previously. Briefly, cancer cell lines were plated in flat-bottom 96-well plates at a cell concentration of 5 × 10^3 cells/well for the fastest growing lines, such as HEK293 and HT29 cells and 1 × 10^4 cells/well for more slowly growing lines, such as HCT116, H1975, BxPC-3, AsPC-1, B16-F10 and DAOY. Then, cells were incubated with the synthesised compounds at different concentrations (from 0.05 to 50 µM) in 200 µL with 10% FBS in RPMI 1640 or DMEM F12 culture medium at 37 °C for 72 h. Later, 10 µL of MTT were added at a final concentration of 0.5 mg/mL, incubated at 37 °C for 4 h, and then solubilised with 10% sodium dodecyl sulphate (SDS) in 0.1 mM HCl and incubated overnight at 37 °C. Formazan formation was measured at 570 nm in a multiwell plate reader (Cytation 5, Biotek Instruments, Winooski, VT, USA). Three independent biological replicates were performed.

[7] = tested on: Daoy; test: MTT cytotoxicity assay, Daoy; assay type: cell-based, human; details: Homo sapiens, Daoy, 72 h, MTT; for cytotoxicity at 50 µM: read-out: % Cytotoxicity (50 µM) DAOY;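 for all read-outs here: viability read as formazan absorbance at 570 nm after MTT reduction, three independent biological replicates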
[8] = tested on: H1975; test: MTT cytotoxicity assay, H1975; assay type: cell-based; details: Homo sapiens, NCI-H1975, 72 h, MTT; for cytotoxicity at 50 µM: read-out: % Cytotoxicity (50 µM) H1975; for IC50: 0.05–50 µM
Experimental: as §1

[9] = tested on: AsPC-1; test: MTT cytotoxicity assay, AsPC-1; assay type: cell-based; details: Homo sapiens, ASPC1, 72 h, 0.05–50 µM
Experimental: as §1

[10] = tested on: HCT116; test: Colony formation assay, HCT116; assay type: cell-based, human; details: 5 µM, 14 d
Experimental: HT29, HCT116, H1975 and HEK293 cells were seeded in a 6-well plate (1 × 10^4 cells per well) and incubated overnight in DMEM F12 supplemented with 10% FBS. […] After 72 h, the medium was replaced by fresh medium without stimuli, and cells were incubated for an additional 14 d to permit colony formation. The cells were fixed during 30 min with PFA 4% (v/v), washed and stained for 30 min at RT with a 5% solution of violet crystal for final colony counting. Three independent replicates were performed.

[11] = tested on: BxPC-3; test: MTT cytotoxicity assay, BxPC-3; assay type: cell-based; details: Homo sapiens, 72 h, 0.05–50 µM
Experimental: as §1

[12] = tested on: HT29; test: MTT cytotoxicity assay, HT29; assay type: cell-based; details: Homo sapiens, HT-29, 72 h, MTT; for cytotoxicity at 50 µM: read-out: % Cytotoxicity (50 µM) HT29; for IC50: 0.05–50 µM
Experimental: as §1

CS(=O)(=O)c1ccc(C(=O)Nc2ccc(Cl)c(-c3ccccn3)c2)c(Cl)c1 [Vismodegib, reference compound]
IC50 [1]: > 50 µM | cytotoxicity at 72 h, 50 µM [2]: < 50% | early apoptosis (II) [3]: no statistically significant differences | GLI1 mRNA levels in Smo−/− MEFs [4]: did not affect the mRNA levels of GLI1 | HT29 cell proliferation (CFSE) [5]: less effect on reducing proliferation than 4s | cytotoxicity at 50 µM [6]: < 50% | IC50 [6]: > 50000 nM | IC50 ([7]; 0.05–50 µM): > 50 µM | cytotoxicity at 50 µM [7]: < 50% | cytotoxicity at 50 µM [8]: 53 ± 1.2% | IC50 [8]: > 50000 nM | IC50 [9]: > 50000 nM | colony formation HCT116 [10]: less effective than 4s | IC50 [11]: > 50 µM | cytotoxicity at 50 µM [12]: < 50% | IC50 [12]: > 50 µM

CCCCCCn1cnc2c(-c3ccc(OC(F)(F)F)cc3)nc(N3CCN(c4ccncc4)CC3)nc21 [Compound 4s, 9-Hexyl-2-(4-(pyridin-4-yl)piperazin-1-yl)-6-(4-(trifluoromethoxy)phenyl)-9H-purine]
concentration at which effects on HEK293 cells were observed [1]: above 50 µM | IC50 [1]: > 50 µM | cytotoxicity at 72 h, 50 µM [2]: < 50% | early apoptosis (II) [3]: 64.6% | viability at 19 µM ([3]; Homo sapiens, HT-29, 3 or 12 h, control around 95.7%, read-out: cell viability (Annexin V-FITC/PI)): ~33.8% | GLI1 mRNA levels in Smo−/− MEFs [4]: did not affect the mRNA levels of GLI1 | HT29 cell proliferation (CFSE) [5]: significantly reduced HT29 cell proliferation | cytotoxicity at 50 µM [6]: 99 ± 0.4% | IC50 [6]: 1300 ± 400 nM | cytotoxicity at 50 µM [7]: 98 ± 0.3% | cytotoxicity at 50 µM [8]: 99 ± 0.2% | IC50 [8]: 1500 ± 300 nM | IC50 [9]: 1700 ± 50 nM | colony formation HCT116 [10]: totally inhibited the formation of colonies | IC50 [11]: 4.1 ± 0.9 µM | cytotoxicity at 50 µM [12]: 25 ± 2.7% | IC50 [12]: 15 ± 1.2 µM
